Experiments:
Format in all cases: in vivo
[1] = tested on: wheat (Triticum aestivum); test: Test A postemergence; conditions: 0 to 100 scale, 0 no effect, 100 complete control, approx. 10 days
Text: (§1) Seeds of barnyardgrass (Echinochloa crus-galli), large crabgrass (Digitaria sanguinalis), giant foxtail (Setaria faberii), morningglory (Ipomoea spp.), pigweed (Amaranthus retroflexus), velvetleaf (Abutilon theophrasti), wheat (Triticum aestivum) and corn (Zea mays) were planted into a blend of loam soil and sand and treated preemergence with a directed soil spray using test chemicals formulated in a non-phytotoxic solvent mixture which included a surfactant. At the same time these species were also treated with postemergence applications of test compounds formulated in the same manner. Plants ranged in height from 2 to 10 cm and were in the one- to two-leaf stage for the postemergence treatments. Treated plants and untreated controls were maintained in a greenhouse for approximately 10 days, after which time all treated plants were compared to untreated controls and visually evaluated for injury. Plant response ratings, summarized in Table A, are based on a 0 to 100 scale where 0 is no effect and 100 is complete control.

[2] = tested on: pigweed (Amaranthus retroflexus); test: Test A postemergence; conditions: 0 to 100 scale, 0 no effect, 100 complete control, approx. 10 days
Text: as §1

corn (Zea mays) [3] = test: Test A postemergence; conditions: 0 to 100 scale, 0 no effect, 100 complete control, approx. 10 days
Text: as §1

[4] = tested on: giant foxtail (Setaria faberii); test: Test A postemergence; conditions: 0 to 100 scale, 0 no effect, 100 complete control, approx. 10 days
Text: as §1

[5] = tested on: large crabgrass (Digitaria sanguinalis); test: Test A postemergence; conditions: 0 to 100 scale, 0 no effect, 100 complete control, approx. 10 days
Text: as §1

[6] = tested on: morningglory (Ipomoea spp.); test: Test A postemergence; conditions: 0 to 100 scale, 0 no effect, 100 complete control, approx. 10 days
Text: as §1

[7] = tested on: barnyardgrass (Echinochloa crus-galli); test: Test A postemergence; conditions: 0 to 100 scale, 0 no effect, 100 complete control, approx. 10 days
Text: as §1

[8] = tested on: velvetleaf (Abutilon theophrasti); test: Test A postemergence; conditions: 0 to 100 scale, 0 no effect, 100 complete control, approx. 10 days
Text: as §1

rice (Oryza sativa) = test: Test B flooded paddy test; conditions: Flood, scale 0 to 100
Text: (§2) Plant species in the flooded paddy test consisted of rice (Oryza sativa), umbrella sedge (Cyperus difformis), ducksalad (Heteranthera limosa) and barnyardgrass (Echinochloa crus-galli) grown to the 2-leaf stage for testing. At time of treatment, test pots were flooded to 3 cm above the soil surface, treated by application of test compounds directly to the paddy water, and then maintained at that water depth for the duration of the test. Treated plants and controls were maintained in a greenhouse for 13 to 15 days, after which time all species were compared to controls and visually evaluated. Plant response ratings, summarized in Table B, are based on a scale of 0 to 100 where 0 is no effect and 100 is complete control. A dash (-) response means no test result.

[9] = tested on: ducksalad (Heteranthera limosa); test: Test B flooded paddy test; conditions: Flood, scale 0 to 100
Text: as §2

[10] = tested on: barnyardgrass (Echinochloa crus-galli); test: Test B flooded paddy test; conditions: Flood
Text: as §2

[11] = tested on: umbrella sedge (Cyperus difformis); test: Test B flooded paddy test; conditions: Flood, scale 0 to 100
Text: as §2

[12] = tested on: wheat (Triticum aestivum); test: Test A preemergence; conditions: 0 to 100 scale, 0 no effect, 100 complete control, approx. 10 days
Text: as §1

[13] = tested on: pigweed (Amaranthus retroflexus); test: Test A preemergence; conditions: 0 to 100 scale, 0 no effect, 100 complete control, approx. 10 days
Text: as §1

corn (Zea mays) [14] = test: Test A preemergence; conditions: 0 to 100 scale, 0 no effect, 100 complete control, approx. 10 days
Text: as §1

[15] = tested on: giant foxtail (Setaria faberii); test: Test A preemergence; conditions: 0 to 100 scale, 0 no effect, 100 complete control, approx. 10 days
Text: as §1

[16] = tested on: large crabgrass (Digitaria sanguinalis); test: Test A preemergence; conditions: 0 to 100 scale, 0 no effect, 100 complete control, approx. 10 days
Text: as §1

[17] = tested on: morningglory (Ipomoea spp.); test: Test A preemergence; conditions: 0 to 100 scale, 0 no effect, 100 complete control, approx. 10 days
Text: as §1

[18] = tested on: barnyardgrass (Echinochloa crus-galli); test: Test A preemergence; conditions: 0 to 100 scale, 0 no effect, 100 complete control, approx. 10 days
Text: as §1

[19] = tested on: velvetleaf (Abutilon theophrasti); test: Test A preemergence; conditions: 0 to 100 scale, 0 no effect, 100 complete control, approx. 10 days
Text: as §1

[20] = 250 g ai/ha, scale 0 to 100 (0 no effect, 100 complete control)

O=C1CCCC(O)=C1C(=O)c1nc(Cl)c(-c2cccc(Cl)c2)n(C2CCCCC2)c1=O [Compound 3, 5-chloro-6-(3-chlorophenyl)-1-cyclohexyl-3-[(2-hydroxy-6-oxo-1-cyclohexen-1-yl)carbonyl]-2(1H)-pyrazinone]
Plant response rating, Wheat ([1]; 62 g ai/ha): 0
Plant response rating, Wheat ([1]; 250 g ai/ha): 0
Plant response rating, Pigweed ([2]; 62 g ai/ha): 0
Plant response rating, Pigweed ([2]; 250 g ai/ha): 30
Plant response rating, Corn (corn (Zea mays) [3]; 62 g ai/ha): 0
Plant response rating, Corn (corn (Zea mays) [3]; 250 g ai/ha): 0
Plant response rating, Foxtail, Giant ([4]; 62 g ai/ha): 0
Plant response rating, Foxtail, Giant ([4]; 250 g ai/ha): 0
Plant response rating, Crabgrass, Large ([5]; 62 g ai/ha): 0
Plant response rating, Crabgrass, Large ([5]; 250 g ai/ha): 10
Plant response rating, Morningglory ([6]; 62 g ai/ha): 0
Plant response rating, Morningglory ([6]; 250 g ai/ha): 30
Plant response rating, Barnyardgrass ([7]; 62 g ai/ha): 0
Plant response rating, Barnyardgrass ([7]; 250 g ai/ha): 0
Plant response rating, Velvetleaf ([8]; 62 g ai/ha): 60
Plant response rating, Velvetleaf ([8]; 250 g ai/ha): 100
Plant response rating, Rice (rice (Oryza sativa); 31 g ai/ha): 0
Plant response rating, Rice (rice (Oryza sativa); 62 g ai/ha): 0
Plant response rating, Rice (rice (Oryza sativa); 125 g ai/ha): 0
Plant response rating, Rice (rice (Oryza sativa); 250 g ai/ha): 0
Plant response rating, Ducksalad ([9]; 31 g ai/ha): 0
Plant response rating, Ducksalad ([9]; 62 g ai/ha): 20
Plant response rating, Ducksalad ([9]; 125 g ai/ha): 80
Plant response rating, Ducksalad ([9]; 250 g ai/ha): 80
Plant response rating, Barnyardgrass ([10]; 31 g ai/ha, scale 0 to 100): 0
Plant response rating, Barnyardgrass ([10]; 62 g ai/ha, scale 0 to 100): 0
Plant response rating, Barnyardgrass ([10]; 125 g ai/ha, scale 0 to 100): 0
Plant response rating, Barnyardgrass [10, 20]: 0
Plant response rating, Sedge, Umbrella ([11]; 31 g ai/ha): 0
Plant response rating, Sedge, Umbrella ([11]; 62 g ai/ha): 0
Plant response rating, Sedge, Umbrella ([11]; 125 g ai/ha): 30
Plant response rating, Sedge, Umbrella ([11]; 250 g ai/ha): 60
Plant response rating, Wheat ([12]; 62 g ai/ha): 0
Plant response rating, Wheat ([12]; 250 g ai/ha): 0
Plant response rating, Pigweed ([13]; 62 g ai/ha): 0
Plant response rating, Pigweed ([13]; 250 g ai/ha): 60
Plant response rating, Corn (corn (Zea mays) [14]; 62 g ai/ha): 0
Plant response rating, Corn (corn (Zea mays) [14]; 250 g ai/ha): 0
Plant response rating, Foxtail, Giant ([15]; 62 g ai/ha): 0
Plant response rating, Foxtail, Giant ([15]; 250 g ai/ha): 0
Plant response rating, Crabgrass, Large ([16]; 62 g ai/ha): 0
Plant response rating, Crabgrass, Large ([16]; 250 g ai/ha): 30
Plant response rating, Morningglory ([17]; 62 g ai/ha): 0
Plant response rating, Morningglory ([17]; 250 g ai/ha): 10
Plant response rating, Barnyardgrass ([18]; 62 g ai/ha): 0
Plant response rating, Barnyardgrass ([18]; 250 g ai/ha): 20
Plant response rating, Velvetleaf ([19]; 62 g ai/ha): 40
Plant response rating, Velvetleaf ([19]; 250 g ai/ha): 80

COCCn1c(-c2cc(F)cc(F)c2)cnc(C(=O)C2=C(O)CCCC2=O)c1=O [Compound 5, 6-(3,5-difluorophenyl)-3-[(2-hydroxy-6-oxo-1-cyclohexen-1-yl)carbonyl]-1-(2-methoxyethyl)-2(1H)-pyrazinone]
Plant response rating, Wheat ([1]; 31 g ai/ha): 0
Plant response rating, Wheat ([1]; 125 g ai/ha): 30
Plant response rating, Wheat ([1]; 500 g ai/ha): 30
Plant response rating, Pigweed ([2]; 31 g ai/ha): 80
Plant response rating, Pigweed ([2]; 125 g ai/ha): 100
Plant response rating, Pigweed ([2]; 500 g ai/ha): 100
Plant response rating, Corn (corn (Zea mays) [3]; 31 g ai/ha): 10
Plant response rating, Corn (corn (Zea mays) [3]; 125 g ai/ha): 50
Plant response rating, Corn (corn (Zea mays) [3]; 500 g ai/ha): 60
Plant response rating, Foxtail, Giant ([4]; 31 g ai/ha): 30
Plant response rating, Foxtail, Giant ([4]; 125 g ai/ha): 60
Plant response rating, Foxtail, Giant ([4]; 500 g ai/ha): 80
Plant response rating, Crabgrass, Large ([5]; 31 g ai/ha): 70
Plant response rating, Crabgrass, Large ([5]; 125 g ai/ha): 90
Plant response rating, Crabgrass, Large ([5]; 500 g ai/ha): 90
Plant response rating, Morningglory ([6]; 31 g ai/ha): 80
Plant response rating, Morningglory ([6]; 125 g ai/ha): 90
Plant response rating, Morningglory ([6]; 500 g ai/ha): 90
Plant response rating, Barnyardgrass ([7]; 31 g ai/ha): 50
Plant response rating, Barnyardgrass ([7]; 125 g ai/ha): 90
Plant response rating, Barnyardgrass ([7]; 500 g ai/ha): 90
Plant response rating, Velvetleaf ([8]; 31 g ai/ha): 70
Plant response rating, Velvetleaf ([8]; 125 g ai/ha): 80
Plant response rating, Velvetleaf ([8]; 500 g ai/ha): 100
Plant response rating, Rice (rice (Oryza sativa); 31 g ai/ha): 0
Plant response rating, Rice (rice (Oryza sativa); 62 g ai/ha): 0
Plant response rating, Rice (rice (Oryza sativa); 125 g ai/ha): 10
Plant response rating, Rice (rice (Oryza sativa); 250 g ai/ha): 20
Plant response rating, Ducksalad ([9]; 31 g ai/ha): 0
Plant response rating, Ducksalad ([9]; 62 g ai/ha): 40
Plant response rating, Ducksalad ([9]; 125 g ai/ha): 60
Plant response rating, Ducksalad ([9]; 250 g ai/ha): 90
Plant response rating, Barnyardgrass ([10]; 31 g ai/ha, scale 0 to 100): 0
Plant response rating, Barnyardgrass ([10]; 62 g ai/ha, scale 0 to 100): 0
Plant response rating, Barnyardgrass ([10]; 125 g ai/ha, scale 0 to 100): 25
Plant response rating, Barnyardgrass [10, 20]: 80
Plant response rating, Sedge, Umbrella ([11]; 31 g ai/ha): 50
Plant response rating, Sedge, Umbrella ([11]; 62 g ai/ha): 70
Plant response rating, Sedge, Umbrella ([11]; 125 g ai/ha): 90
Plant response rating, Sedge, Umbrella ([11]; 250 g ai/ha): 100
Plant response rating, Wheat ([12]; 31 g ai/ha): 0
Plant response rating, Wheat ([12]; 125 g ai/ha): 0
Plant response rating, Wheat ([12]; 500 g ai/ha): 0
Plant response rating, Pigweed ([13]; 31 g ai/ha): 40
Plant response rating, Pigweed ([13]; 125 g ai/ha): 90
Plant response rating, Pigweed ([13]; 500 g ai/ha): 90
Plant response rating, Corn (corn (Zea mays) [14]; 31 g ai/ha): 0
Plant response rating, Corn (corn (Zea mays) [14]; 125 g ai/ha): 0
Plant response rating, Corn (corn (Zea mays) [14]; 500 g ai/ha): 0
Plant response rating, Foxtail, Giant ([15]; 31 g ai/ha): 20
Plant response rating, Foxtail, Giant ([15]; 125 g ai/ha): 70
Plant response rating, Foxtail, Giant ([15]; 500 g ai/ha): 80
Plant response rating, Crabgrass, Large ([16]; 31 g ai/ha): 20
Plant response rating, Crabgrass, Large ([16]; 125 g ai/ha): 100
Plant response rating, Crabgrass, Large ([16]; 500 g ai/ha): 100
Plant response rating, Morningglory ([17]; 31 g ai/ha): 0
Plant response rating, Morningglory ([17]; 125 g ai/ha): 40
Plant response rating, Morningglory ([17]; 500 g ai/ha): 80
Plant response rating, Barnyardgrass ([18]; 31 g ai/ha): 0
Plant response rating, Barnyardgrass ([18]; 125 g ai/ha): 50
Plant response rating, Barnyardgrass ([18]; 500 g ai/ha): 80
Plant response rating, Velvetleaf ([19]; 31 g ai/ha): 30
Plant response rating, Velvetleaf ([19]; 125 g ai/ha): 70
Plant response rating, Velvetleaf ([19]; 500 g ai/ha): 80
